Patent US20060079453A1, “Hla binding peptides and their uses” (priority 2002, published 2006)
Values joined by “and” are separate entries in the source; they are usually repeats but may differ in a detail not shown here. Identical values can stand only once. Like-named read-outs stand apart in the source and are kept apart here. No end group written: not given here.

Key:
Assay in all cases: biochemical
[1] = target: HLA-B*4403 (Homo sapiens, UniProt P01889, A223V/A65T/A93T/A95T/D201E/D98Y/E176V/E187L/E204Q/E69K/G107R/H137Y/K202T/L105A/L119I/N104T/N87E/Q56L/Q94N/R106L/R155S/R180L/S101N/S121R/S35A/S48T/T118I/V36M/W191S/Y140D/Y91S); type: binding
[2] = target: HLA-B*1801 (Homo sapiens, UniProt P01889, A329T/A93T/A95T/C349S/D201E/D54G/D98Y/E176V/E187T/E204Q/E69T/K202T/Q94N/R155S/R180L/S121R/V306I/Y140S/Y195H/Y33H/Y91S); type: binding
[3] = target: H-2Kk (Mus musculus, UniProt P04223); type: binding, murine
Chain of H-2Kk (P04223 22-369): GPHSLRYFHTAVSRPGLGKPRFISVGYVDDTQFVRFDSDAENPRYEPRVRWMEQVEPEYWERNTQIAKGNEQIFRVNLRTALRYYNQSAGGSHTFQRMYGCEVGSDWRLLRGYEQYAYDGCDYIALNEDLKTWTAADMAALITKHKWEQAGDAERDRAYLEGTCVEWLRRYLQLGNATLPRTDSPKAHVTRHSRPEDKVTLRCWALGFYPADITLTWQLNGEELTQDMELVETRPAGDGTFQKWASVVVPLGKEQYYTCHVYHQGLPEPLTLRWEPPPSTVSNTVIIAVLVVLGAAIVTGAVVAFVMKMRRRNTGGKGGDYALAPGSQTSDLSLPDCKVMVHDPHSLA
Chain of H-2Kk (P61769 21-119, further chain): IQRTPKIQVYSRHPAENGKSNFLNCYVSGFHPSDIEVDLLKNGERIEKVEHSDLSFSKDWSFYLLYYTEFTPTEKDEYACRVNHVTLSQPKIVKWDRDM

[4] = target: HLA-B*4501 (Homo sapiens, UniProt P01889, A329T/A65T/A93T/A95T/C349S/D138N/D201E/D98Y/E176V/E187L/E204Q/E69K/H137Y/K202T/L119W/N87E/Q56L/Q94N/R155S/R180D/S121R/S35A/S48T/V127L/V306I/V36M/W191S/Y140L/Y33H/Y91S); type: binding
[5] = target: HLA-B*4002 (Homo sapiens, UniProt P01889, A65T/A93T/A95T/D138N/D201E/D98Y/E176V/E204Q/E69K/K202T/N87E/Q56L/Q94N/R180L/S48T/Y33H/Y91S); type: binding
[6] = target: HLA-B*4402 (Homo sapiens, UniProt P01889, A223V/A65T/A93T/A95T/D201E/D98Y/E176V/E187L/E204Q/E69K/G107R/H137Y/K202T/L105A/L119I/N104T/N87E/Q56L/Q94N/R106L/R155S/R180D/S101N/S121R/S35A/S48T/T118I/V36M/W191S/Y140D/Y91S); type: binding
[7] = target: HLA-B*4001 (Homo sapiens, UniProt P01889, A65T/A93T/A95T/D138N/D98Y/E176V/E69K/N87E/Q56L/Q94N/R180L/S121R/S35A/S48T/T167S/V36M/W171L/Y33H/Y91S); type: binding
[8] = target: HLA-B*0702 (Homo sapiens, UniProt P01889); type: binding
[9] = target: HLA-B*5401 (Homo sapiens, UniProt P01889, A329T/C349S/D138N/D201E/E176V/E187T/E204Q/E69G/I76V/K202T/L119W/R155S/R180L/S121T/S35A/S48A/V127L/V306I/V36M/Y140L); type: binding
[10] = target: HLA-B*3501 (Homo sapiens, UniProt P01889, A329T/A93T/A95T/C349S/D201E/D98Y/E176V/E187L/E204Q/E69T/I218V/K202T/L119I/Q94N/R155S/R180L/S121R/S35A/S48A/T118I/V127L/V306I/V36M/Y140S/Y91F); conditions: B*3501 binding affinity (IC50)
[11] = target: HLA-B*5101 (Homo sapiens, UniProt P01889, A329T/A93T/A95T/C349S/D138N/D201E/D98Y/E187L/E204Q/E69T/G107R/I218V/K202T/L105A/L119W/N104I/Q94N/R106L/R155S/R180L/S101N/S121T/S35A/S48A/V306I/V36M/Y195H/Y91F); conditions: B*5101 binding affinity (IC50)
[12] = target: H-2Ld (Mus musculus, UniProt P01897); type: binding, murine
Chain of H-2Ld (P01897 25-362): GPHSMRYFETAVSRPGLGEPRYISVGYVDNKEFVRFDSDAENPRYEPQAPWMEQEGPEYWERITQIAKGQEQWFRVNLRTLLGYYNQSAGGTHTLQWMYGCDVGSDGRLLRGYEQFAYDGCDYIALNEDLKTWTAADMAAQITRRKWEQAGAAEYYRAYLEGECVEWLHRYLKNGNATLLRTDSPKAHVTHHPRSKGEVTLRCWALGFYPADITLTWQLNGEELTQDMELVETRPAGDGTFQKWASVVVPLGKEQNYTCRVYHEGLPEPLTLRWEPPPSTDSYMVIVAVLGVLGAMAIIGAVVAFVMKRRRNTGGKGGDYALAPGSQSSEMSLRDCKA
Chain of H-2Ld (P61769 21-119, further chain): as the sequence (P61769 21-119, further chain) above

[13] = target: H-2 Db (Mus musculus, UniProt P01899); type: binding, murine; conditions: Db
Chain of H-2 Db (P61769 21-119): as the sequence (P61769 21-119, further chain) above
Chain of H-2 Db (P01899 25-362): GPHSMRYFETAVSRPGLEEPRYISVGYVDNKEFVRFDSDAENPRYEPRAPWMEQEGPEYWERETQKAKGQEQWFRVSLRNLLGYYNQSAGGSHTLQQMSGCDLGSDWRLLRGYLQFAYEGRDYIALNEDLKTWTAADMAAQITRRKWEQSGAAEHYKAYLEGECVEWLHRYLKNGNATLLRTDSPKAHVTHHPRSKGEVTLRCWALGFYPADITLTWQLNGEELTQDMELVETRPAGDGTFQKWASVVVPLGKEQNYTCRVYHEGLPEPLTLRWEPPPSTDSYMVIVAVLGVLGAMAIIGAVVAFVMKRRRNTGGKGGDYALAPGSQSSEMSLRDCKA

[14] = target: HLA-B*5301 (Homo sapiens, UniProt P01889, A329T/A93T/A95T/C349S/D201E/D98Y/E176V/E187L/E204Q/E69T/G107R/I218V/K202T/L105A/L119I/N104I/Q94N/R106L/R155S/R180L/S101N/S121R/S35A/S48A/T118I/V127L/V306I/V36M/Y140S/Y91F); type: binding

Sequence: NEILIRCII
- IC50 ([1]; B*4403): 0.258 µM
- IC50 ([2]; B*1801): 5.67 µM
- IC50 [3]: 0.012 µM
- IC50 ([4]; B*4501): 3.25 µM
- IC50 ([5]; B*4002): 0.059 µM

Sequence: QEKKRHVDL
- IC50 ([2]; B*1801): 0.0073 µM
- IC50 [3]: 0.256 µM
- IC50 ([4]; B*4501): 12.6 µM
- IC50 ([6]; B*4402): 0.443 µM
- IC50 ([7]; B*4001): 16 µM
- IC50 ([5]; B*4002): 63.1 µM

Sequence: QPRAPIRPI
- IC50 ([8]; B*0702 binding affinity (IC50)): 6.77 µM
- IC50 ([9]; B*5401 binding affinity (IC50)): > 100 µM
- IC50 [10]: > 72 µM
- IC50 [11]: > 55 µM

Sequence: RIPNASGVYM
- IC50 ([12]; read-out: Ld): 0.019 µM

Sequence: RPQASGVAM
- IC50 ([12]; Ld): 0.012 µM

Sequence: RPQASGVYM
- IC50 ([12]; Ld): 0.00099 µM and 0.003 µM
- IC50 [13]: > 44 µM

Sequence: RPQASQVYM
- IC50 ([12]; Ld): 0.0038 µM

Sequence: RPQGSGVYM
- IC50 ([12]; Ld): 0.039 µM

Sequence: RPQVPLRPI
- IC50 ([8]; B*0702 binding affinity (IC50)): 0.367 µM
- IC50 ([14]; B*5301 binding affinity (IC50)): 85.3 µM
- IC50 [10]: > 23.2 µM
- IC50 [11]: > 9 µM

Sequence: RPRGPGPGSEF
- IC50 ([8]; B*0702 binding affinity (IC50)): 0.011 µM
- IC50 ([14]; B*5301 binding affinity (IC50)): 19.3 µM
- IC50 ([9]; B*5401 binding affinity (IC50)): 2.74 µM
- IC50 [10]: 24.9 µM
- IC50 [11]: > 14.8 µM

Sequence: SDYEGRLI
- IC50 [1]: 0.228 µM
- IC50 [2]: > 24.8 µM
- IC50 [3]: 0.0006 µM
- IC50 [5]: 0.086 µM

Sequence: SEAAYAKKI
- IC50 ([1]; B*4403): 0.061 µM
- IC50 ([2]; B*1801): 8.61 µM
- IC50 [3]: 0.0039 µM
- IC50 ([6]; B*4402): 1.68 µM
- IC50 ([7]; B*4001): 0.308 µM

Sequence: SENDRYRLL
- IC50 ([3]; read-out: Kk): 0.013 µM

Sequence: SPGPGPGL
- IC50 ([8]; B*0702 binding affinity (IC50)): 0.173 µM
- IC50 ([14]; B*5301 binding affinity (IC50)): 25.6 µM
- IC50 ([9]; B*5401 binding affinity (IC50)): 53.3 µM
- IC50 [10]: 2.34 µM
- IC50 [11]: 3.54 µM

Sequence: TPAGPGPGVF
- IC50 ([8]; B*0702 binding affinity (IC50)): 0.334 µM
- IC50 ([14]; B*5301 binding affinity (IC50)): 2.63 µM
- IC50 [10]: 0.374 µM

Sequence: TPAIRGPGPGF
- IC50 ([8]; read-out: B*0702 binding affinity (IC50)): 0.144 µM
- IC50 ([14]; read-out: B*5301 binding affinity (IC50)): 2.74 µM
- IC50 ([9]; read-out: B*5401 binding affinity (IC50)): 31.8 µM

Sequence: TPTGWGLAI
- IC50 ([8]; B*0702 binding affinity (IC50)): 0.076 µM
- IC50 ([14]; B*5301 binding affinity (IC50)): 1.34 µM
- IC50 [10]: 5.14 µM

Sequence: VESENKVV
- IC50 [3]: 0.349 µM

Sequence: YEANGNLI
- IC50 [2]: 0.191 µM
- IC50 [3]: 0.00065 µM
- IC50 [6]: 0.516 µM
- IC50 [7]: 0.0079 µM
- IC50 [5]: 0.007 µM

Sequence: YEDTGKTI
- IC50 ([2]; B*1801): 14 µM
- IC50 [3]: 0.00086 µM
- IC50 ([4]; read-out: B*4501): 49 µM
- IC50 ([6]; B*4402): 7.91 µM
- IC50 ([7]; B*4001): 0.794 µM
- IC50 ([5]; B*4002): 0.083 µM

Sequence: YENDIEKKI
- IC50 ([1]; B*4403): 0.371 µM
- IC50 ([2]; B*1801): 31 µM
- IC50 [3]: 0.0038 µM
- IC50 ([6]; B*4402): 1.73 µM

Sequence: YPHFMLPTNL
- IC50 ([12]; read-out: Ld): 0.0075 µM
